In BindingDB's records for patent US12281118 (Shanghai Ringene Biopharma, 2025) one finds IC50 data, which are given here for 6 compounds.

Broadly, the IC50 is the concentration that gives 50% inhibition. The low end stands for higher potency, the high end for lower potency.

Some results are limits rather than exact numbers.

The experiment has as its target T1, Tyrosine-protein phosphatase non-receptor type 11 (Homo sapiens, UniProt Q06124).
T1 sequence (Q06124 whole entry): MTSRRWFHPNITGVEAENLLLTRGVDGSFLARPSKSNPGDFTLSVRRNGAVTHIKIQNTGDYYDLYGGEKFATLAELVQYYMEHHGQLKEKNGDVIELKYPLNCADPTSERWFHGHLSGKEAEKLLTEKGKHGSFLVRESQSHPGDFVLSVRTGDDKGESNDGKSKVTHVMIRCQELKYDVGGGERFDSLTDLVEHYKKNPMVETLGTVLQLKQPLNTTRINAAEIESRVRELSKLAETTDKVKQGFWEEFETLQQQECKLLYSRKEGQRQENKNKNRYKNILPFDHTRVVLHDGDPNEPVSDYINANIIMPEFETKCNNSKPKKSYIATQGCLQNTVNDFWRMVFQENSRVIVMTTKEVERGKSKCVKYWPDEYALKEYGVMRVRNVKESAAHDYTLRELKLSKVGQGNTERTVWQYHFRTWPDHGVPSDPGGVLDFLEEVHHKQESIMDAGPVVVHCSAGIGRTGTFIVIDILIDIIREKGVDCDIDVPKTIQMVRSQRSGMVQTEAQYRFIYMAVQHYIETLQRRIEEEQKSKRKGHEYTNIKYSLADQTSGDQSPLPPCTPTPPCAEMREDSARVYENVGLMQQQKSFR
In words: Test of Inhibitory Activity Assay. On the procedure: (1) Preparing 1×Reaction Buffer according to the BPS Biosciences' Instructions for Use of the SHP2 enzyme. (2) Preparing a compound concentration gradient: Test the test compound at 10 μM under 3× dilution for 10 concentrations, diluting to a 100% dimethyl sulfoxide solution at a 100× final concentration in a 384-well plate, and diluting the compound with Precision 4× for 10 concentrations. […] (3) Preparing the activation peptide solution at a 5× final concentration with the 1×Reaction Buffer, adding 5 μL of the solution to a reaction plate, respectively, and centrifuging at 1000 rpm for 1 min. (4) Preparing an enzyme solution at a 2.5× final concentration with the 1×Reaction Buffer, adding 10 μL of the solution to the reaction plate, respectively, centrifuging at 1000 rpm for 1 min, and incubating at room temperature for 60 min. […] (6) Adding 30 μL of stop test solution to stop the reaction, centrifuging at 1000 rpm for […], and mixing well by shaking. (7) Reading the conversion rate with a Caliper EZ Reader. (7) Data analysis:%Inhibition=Conversion%_max-Conversion%_sampleConversion%_max-Conversion%_min×100Wherein: Conversion %/_sample is the reading of a conversion rate of a sample; Conversion %_min: mean of negative control wells, which represents the reading of a conversion rate in absence of enzyme activity wells; Conversion %_max: mean of a ratio of positive control wells, which represents the reading of a conversion rate in absence of compound inhibition wells.
On to `Cc1cc(N2CCC(C)(N)CC2)n2cnnc2c1-c1cccc(Cl)c1Cl` [US12281118, Example 23], for which the IC50 was more than 1000 nM.
In the case of `CC1(N)CCN(c2nc(CF)c(-c3cccc(Cl)c3Cl)c3nccn23)CC1` [US12281118, Example 28] it was 53 nM; in that of `Cc1nc(N2CCC(C)(N)CC2)n2ccnc2c1Sc1cccc(Cl)c1Cl` [US12281118, Example 25], 65 nM; in that of `Cc1nc(N2CCC(C)(N)CC2)n2ncnc2c1-c1cccc(Cl)c1Cl` [US12281118, Example 21], more than 1000 nM.
In turn, `Cc1nc(N2CCC3(CC2)Cc2ccccc2[C@H]3N)n2ccnc2c1Sc1cccnc1C(F)(F)F` [US12281118, Example 2] returned an IC50 of 6.3 nM. That is a single-digit nanomolar value.
Take `Cc1nc(N2CCC(C)(N)CC2)n2cnnc2c1-c1cccc(Cl)c1Cl` [US12281118, Example 22]: the IC50 was more than 1000 nM.
